Square brackets hold non-standard residues; d marks the D form. Peptide text beside a SMILES is read from it. Sar = CNCC(=O)O
System: Brush Border Membrane Vesicle (BBMV) enzymes
Assay: in vitro
Assay type: in vitro ADME
Conditions: rat BBMV
Experimental: A few of the peptides from the library were selected for further evaluation. The TAPS c(2-6) representative MOP agonists, TAPS c(6-2) and TAPS c(4-2) were not evaluated for opioid receptor interaction, and two non-active cyclic peptides, TAPS c(3-2) and TAPS c(6-6), having a smaller and larger ring sizes, respectively. The backbone-cyclic peptide stability in the GI tract was evaluated using rat origin pooled Brush Border Membrane Vesicle (BBMV) enzymes and were compared to the stability of linear TAPS (Figure 6).
1. Mass spectrometry analyses … 1
2. Metabolic Stability in BBMVs … 1
2.1 Preparation of BBMVs … 1
2.2 Experimental protocol for BBMVs … 2
3.1 In vitro cell based model: Caco-2 cell culture permeability studies … 2 3.1.1 Growth and Maintenance of the Cells: … 2
3.1.2 Preparation of the Cells for Transport Studies: … 2
3.2 Experimental Protocol … 2
3.3 Data Analysis of In Vitro Studies … 3
3.4 Statistical Analysis of the In Vitro Studies … 3
3.5 Statistical Analysis of Pharmacodynamic Studies … 3
3.6 Analytical Methods for Compound Concentration … 3
5. Supplementary Figures … 6
6. Supplementary Tables … 7
1. Mass spectrometry analyses
Mass spectra were acquired on a LCQ Fleet Ion Trap mass spectrometer (Thermo Scientific) utilizing electrospray ionization. For high resolution mass spectrometry (HRMS) analyses, the spectra were recorded on an Agilent 6550 iFunnel Q-TOF LC/MS system.
2. […]

With `CN(CC(=O)O)C(=O)[C@H](Cc1ccccc1)NC(=O)[C@@H](CCCN=C(N)N)NC(=O)[C@@H](N)Cc1ccc(O)cc1` [Linear, Tyr-D-Arg-Phe-Sar] (H-Y[dR]F[Sar]-OH) the metabolised at 0.5 h (male, Wistar, kidney or brush border membranes, pH 7.4, after treatment for 30 min, read-out: peptide degraded by intestinal enzymes) was over 80% and the “peptide fate with intestinal enzymes” value (after 60 min) was “decomposed”.

— paper PMC7689096, “Cyclizing Painkillers: Development of Backbone-Cyclic TAPS Analogs” (Frontiers in Chemistry, 2020)
